# Assay results taken from paper PMC12459614 (European journal of medicinal chemistry, 2025).
# What was measured:
# [1] = biological target: T1, hGPR17L (Homo sapiens, UniProt Q13304); test: Calcium mobilization assay; format: cell-based; settings: for antagonist activity at GPR17: calcium mobilization assay, data not shown
# [2] = biological target: hGPR17 (Homo sapiens, UniProt Q13304); test: Cisbio HTRF β-arrestin recruitment assay, Schild analysis; format: cell-based; settings: Table 1
# [3] = biological target: FGFR1 (Homo sapiens, UniProt P11362); test: PathHunter U2OS FGFR1 functional counter assay; format: cell-based; settings: dose response
# [4] = biological target: T1, hGPR17L; test: cAMP signaling in GLUTag cells expressing hGPR17L; format: cell-based; settings: for attenuation of MDL-mediated inhibition of forskolin-stimulated cAMP: 10 μM compound, 100 nM MDL, 10 μM forskolin
# [5] = biological target: GHSR1a (Homo sapiens, UniProt Q92847); test: PathHunter U2OS GHSR1a β-arrestin counter assay; format: cell-based; settings: dose response
# [6] = biological target: T1, hGPR17L; test: GLP-1 secretion assay in GLUTag cells expressing hGPR17L; format: cell-based; settings: 6.3 μM MDL; for attenuation of MDL-mediated inhibition of GLP-1 secretion: 10 μM compound, 10 μM forskolin and 10 μM IBMX
# [7] = biological target: GPR17 (long isoform) (Homo sapiens, UniProt Q13304); test: PathHunter GPR17 β-arrestin recruitment assay; format: cell-based; settings: IC50 (antagonist mode), assay development; stimulated with 2 μM MDL (~EC80)
# [8] = biological target: T2, hCysLTR2 (Homo sapiens, UniProt Q9NS75); test: Calcium mobilization, Neuro-2a cells transiently transfected with hCysLTR2; format: cell-based; settings: 10 μM compound; 50 nM LTD4
# T2 sequence (Q9NS75 1-346): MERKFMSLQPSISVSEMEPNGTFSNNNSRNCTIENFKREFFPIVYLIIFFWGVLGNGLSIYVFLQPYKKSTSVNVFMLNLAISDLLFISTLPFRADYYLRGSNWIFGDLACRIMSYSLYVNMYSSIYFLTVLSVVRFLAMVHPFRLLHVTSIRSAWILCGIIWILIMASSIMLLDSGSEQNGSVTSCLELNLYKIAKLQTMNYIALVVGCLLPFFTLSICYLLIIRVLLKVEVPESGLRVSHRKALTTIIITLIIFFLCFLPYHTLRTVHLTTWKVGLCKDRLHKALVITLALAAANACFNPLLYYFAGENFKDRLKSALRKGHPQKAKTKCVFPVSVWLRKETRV
# [9] = test system: GPR17; settings: cited from earlier work
# [10] = biological target: T1, hGPR17L; test: cAMP accumulation HTRF assay
# [11] = biological target: N-methyl-D-aspartate (NMDA) receptors, glycine binding site; settings: cited from earlier work
# [12] = biological target: hP2RY1 (Homo sapiens, UniProt P47900); test: Calcium mobilization, Neuro-2a cells transiently transfected with hP2RY1; format: cell-based; settings: 10 μM compound (300 μM MRS2179); 8 nM 2MeSADP
# [13] = biological target: T3, hCysLTR1 (Homo sapiens, UniProt Q9Y271); test: Calcium mobilization, Neuro-2a cells transiently transfected with hCysLTR1; format: cell-based; settings: 10 μM compound; 50 nM LTD4
# T3 sequence (Q9Y271 1-337): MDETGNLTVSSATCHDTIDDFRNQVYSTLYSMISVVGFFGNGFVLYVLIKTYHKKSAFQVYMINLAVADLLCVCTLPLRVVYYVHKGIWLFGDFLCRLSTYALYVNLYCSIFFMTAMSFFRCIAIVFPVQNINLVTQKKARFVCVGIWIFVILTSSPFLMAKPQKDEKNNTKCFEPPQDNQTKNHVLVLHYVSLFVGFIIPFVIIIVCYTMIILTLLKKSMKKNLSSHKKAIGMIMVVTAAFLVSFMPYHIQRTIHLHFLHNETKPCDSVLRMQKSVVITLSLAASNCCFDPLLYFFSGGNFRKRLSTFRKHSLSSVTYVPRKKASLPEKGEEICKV
# T1 sequence (Q13304 whole entry): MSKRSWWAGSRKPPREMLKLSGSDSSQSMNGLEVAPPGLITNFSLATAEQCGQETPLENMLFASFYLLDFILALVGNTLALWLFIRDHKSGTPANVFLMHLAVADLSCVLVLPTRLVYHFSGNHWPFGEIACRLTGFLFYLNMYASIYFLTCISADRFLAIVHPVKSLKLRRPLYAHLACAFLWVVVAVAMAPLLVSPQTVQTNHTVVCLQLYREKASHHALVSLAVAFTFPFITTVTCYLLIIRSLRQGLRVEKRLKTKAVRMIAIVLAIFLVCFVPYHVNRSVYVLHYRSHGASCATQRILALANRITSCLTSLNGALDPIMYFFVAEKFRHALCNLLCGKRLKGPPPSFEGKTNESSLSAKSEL
# Sequence of GHSR1a (Q92847 whole entry): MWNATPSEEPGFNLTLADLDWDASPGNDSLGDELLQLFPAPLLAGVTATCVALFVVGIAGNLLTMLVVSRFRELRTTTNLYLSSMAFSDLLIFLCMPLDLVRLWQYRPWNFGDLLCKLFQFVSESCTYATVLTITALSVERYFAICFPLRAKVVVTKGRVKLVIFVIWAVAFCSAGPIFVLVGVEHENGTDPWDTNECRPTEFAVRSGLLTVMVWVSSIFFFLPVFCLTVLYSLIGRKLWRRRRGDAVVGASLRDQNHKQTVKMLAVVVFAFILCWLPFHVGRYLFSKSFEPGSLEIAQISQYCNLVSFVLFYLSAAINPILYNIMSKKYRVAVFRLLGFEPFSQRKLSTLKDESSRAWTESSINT
# Sequence of hP2RY1 (P47900 whole entry): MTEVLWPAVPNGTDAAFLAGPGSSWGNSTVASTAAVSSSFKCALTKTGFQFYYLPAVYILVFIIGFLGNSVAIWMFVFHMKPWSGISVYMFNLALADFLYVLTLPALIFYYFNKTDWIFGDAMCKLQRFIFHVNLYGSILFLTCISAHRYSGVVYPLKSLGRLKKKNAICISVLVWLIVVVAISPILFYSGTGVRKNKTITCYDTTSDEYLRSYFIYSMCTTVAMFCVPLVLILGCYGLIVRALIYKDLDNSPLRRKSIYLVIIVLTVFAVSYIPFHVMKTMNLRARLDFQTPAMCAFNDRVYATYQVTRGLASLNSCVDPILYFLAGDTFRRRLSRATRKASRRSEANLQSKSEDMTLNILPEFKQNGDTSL
# Sequence of FGFR1 (P11362 22-822): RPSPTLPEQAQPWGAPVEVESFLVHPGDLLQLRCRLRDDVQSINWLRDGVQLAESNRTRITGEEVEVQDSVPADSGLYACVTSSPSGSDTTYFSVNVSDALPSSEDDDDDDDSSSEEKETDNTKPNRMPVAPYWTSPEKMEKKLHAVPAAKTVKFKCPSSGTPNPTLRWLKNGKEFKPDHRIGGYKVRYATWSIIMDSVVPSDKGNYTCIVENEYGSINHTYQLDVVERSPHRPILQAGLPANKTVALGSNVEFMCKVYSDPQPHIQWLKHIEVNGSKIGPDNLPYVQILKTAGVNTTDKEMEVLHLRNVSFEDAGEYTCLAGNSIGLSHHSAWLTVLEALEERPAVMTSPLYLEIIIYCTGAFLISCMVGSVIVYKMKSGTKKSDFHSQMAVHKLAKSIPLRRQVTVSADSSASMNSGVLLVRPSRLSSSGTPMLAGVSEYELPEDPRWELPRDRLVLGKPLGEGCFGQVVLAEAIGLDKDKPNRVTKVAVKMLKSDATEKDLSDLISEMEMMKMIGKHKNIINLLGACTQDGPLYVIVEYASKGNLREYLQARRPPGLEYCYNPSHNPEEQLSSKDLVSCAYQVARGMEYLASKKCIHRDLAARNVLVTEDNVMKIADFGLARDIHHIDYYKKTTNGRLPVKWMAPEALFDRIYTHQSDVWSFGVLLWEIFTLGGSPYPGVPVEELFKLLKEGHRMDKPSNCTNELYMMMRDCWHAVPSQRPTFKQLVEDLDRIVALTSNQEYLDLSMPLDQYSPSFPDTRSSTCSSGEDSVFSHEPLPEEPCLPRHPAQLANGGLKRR
# Sequence of hGPR17 (Q13304 whole entry): as the sequence (Q13304 whole entry) above
# Sequence of GPR17 (long isoform) (Q13304 whole entry, canonical isoform): as the sequence (Q13304 whole entry) above
smiles,measurement,setting,value
"COc1ccc(C(=O)NC2CCCc3c2[nH]c2c(Cl)cccc32)cc1OC (stereo not shown) [Compd 1, N-(8-Chloro-2,3,4,9-tetrahydro-1H-carbazol-1-yl)-3,4-dimethoxybenzamide]",Emax,"[1]; 1321-N1, read-out: % Efficacy Avg ± SEM",109 ± 3.38%
same,IC50,"[1]; Calcium Assay IC50(μM) Avg ± SEM, Table 2, reported only when efficacy ≥75%",5.47 ± 0.3 µM
same,β-arrestin Schild Slope (95% CI),[2],1.13 (0.96 – 1.30)
same,activity in FGFR1 functional counter assay,[3],no activity
same,attenuation of MDL-mediated inhibition of forskolin-stimulated cAMP,[4],significantly attenuated
same,activity in GHSR1a β-arrestin counter assay,[5],no activity
same,attenuation of MDL-mediated inhibition of GLP-1 secretion,[6],significantly attenuated
O=C(O)c1ccc(OCCCc2ccc(OCCCCOC3CCCCC3)cc2)c(C(=O)NC2CCCC(C(=O)O)C2)c1 (stereo not shown) [HAMI],IC50,"[1]; IC50 (antagonist mode), assay development, stimulated with […] MDL (~EC80)",8.1 µM
same,antagonist activity at GPR17,[1],full antagonist activity
same,IC50,[7],8.2 µM
same,block of CYSLTR2 activation,[8],antagonized
same,attenuation of MDL-mediated inhibition of forskolin-stimulated cAMP,[4],significantly attenuated
same,IC50,[9],single digit micromolar range
same,block of MDL-stimulated receptor activation of GPR17,[9],completely
same,IC50,"[10]; IC50 (antagonist mode), assay development, 30 nM MDL (EC80), 1 μM forskolin",1.5 µM
same,IC50,"[10]; IC50, cAMP HTRF assay, purified re-purchased/re-synthesized compounds reassessed",10 µM
same,attenuation of MDL-mediated inhibition of GLP-1 secretion,[6],significantly attenuated
"O=C(O)CCc1c(C(=O)O)[nH]c2cc(Cl)cc(Cl)c12 [MDL, 3-(2-carboxyethyl)-4,6-dichloro-1H-indole-2-carboxylic acid]",EC50,[1],0.28 µM
same,Ki,[11],0.14 µM
same,forskolin-stimulated cAMP after GPR17 activation,[4]; forskolin plus MDL,3.5 ± 0.18 nM
same,inhibition of forskolin stimulated cAMP,[4]; forskolin plus MDL,29 ± 3%
same,EC50,[10],0.0019 µM
same,forskolin and IBMX-stimulated GLP-1 secretion after GPR17 activation,[6],50.1 ± 4.6 pM
same,reduction of forskolin and IBMX-stimulated GLP-1 secretion,[6],33 ± 8%
CNc1ncnc2c1ncn2[C@H]1C[C@H](OP(=O)(O)O)[C@@H](COP(=O)(O)O)O1 [MRS2179],block of P2RY1 activation,[12],antagonized
O=C(Nc1cccc2c(=O)cc(-c3nnn[nH]3)oc12)c1ccc(OCCCCc2ccccc2)cc1 [pranlukast],block of CYSLTR1 activation,[13],antagonized
same,antagonist activity at GPR17,[1],full antagonist activity
same,block of MDL-stimulated receptor activation of GPR17,[9],completely
